Measured values: publication PMC6572294, “Repurposing of FDA-Approved NSAIDs for DPP-4 Inhibition as an Alternative for Diabetes Mellitus Treatment: Computational and in Vitro Study” (Pharmaceutics, 2019)
pIC50: −log10 of the molar value.

Molecular target: T1, human dipeptidyl peptidase-4 (DPP-4) (Homo sapiens, UniProt P27487)
T1 construct: gene DPP4
Experiment: fluorogenic Gly-Pro cleavage assay, human DPP-4 inhibitor screening kit (Sigma-Aldrich)
Type: biochemical

T1 sequence (P27487 39-766): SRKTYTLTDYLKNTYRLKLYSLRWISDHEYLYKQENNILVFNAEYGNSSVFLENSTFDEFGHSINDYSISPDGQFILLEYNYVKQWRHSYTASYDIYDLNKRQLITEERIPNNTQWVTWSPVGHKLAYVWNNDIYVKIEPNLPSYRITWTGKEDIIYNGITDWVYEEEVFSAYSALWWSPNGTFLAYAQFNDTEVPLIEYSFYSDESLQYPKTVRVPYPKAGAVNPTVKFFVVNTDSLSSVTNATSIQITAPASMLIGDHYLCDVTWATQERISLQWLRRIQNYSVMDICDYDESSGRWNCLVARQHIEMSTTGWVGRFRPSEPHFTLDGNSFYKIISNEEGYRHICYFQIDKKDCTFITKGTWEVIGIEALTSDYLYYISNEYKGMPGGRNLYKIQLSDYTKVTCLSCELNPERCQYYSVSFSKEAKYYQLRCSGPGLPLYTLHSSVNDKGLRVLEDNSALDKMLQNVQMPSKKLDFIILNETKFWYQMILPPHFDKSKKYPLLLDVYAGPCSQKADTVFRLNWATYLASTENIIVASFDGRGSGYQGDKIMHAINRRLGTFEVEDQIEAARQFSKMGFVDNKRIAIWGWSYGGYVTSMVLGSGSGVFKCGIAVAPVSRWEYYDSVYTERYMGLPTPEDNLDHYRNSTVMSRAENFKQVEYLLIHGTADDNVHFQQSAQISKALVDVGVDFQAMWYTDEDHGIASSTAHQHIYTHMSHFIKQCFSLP

## CN1C(C(=O)Nc2ccccn2)=C(O)c2ccccc2S1(=O)=O [piroxicam]
  pIC50: 5.00
